Assay results as given in article PMC7034112, “Bioorganometallic derivatives of 4-hydrazino-benzenesulphonamide as carbonic anhydrase inhibitors: synthesis, characterisation and biological evaluation” (Journal of Enzyme Inhibition and Medicinal Chemistry, 2020).

Tests used:
Test in all cases: stopped-flow CO2 hydrase assay
Type in all cases: biochemical
Conditions in all cases: CO2 […], […] Hepes pH […] Na2SO4, […] h preincubation at room temperature
hCA XII = biological target: T1, hCA XII (Homo sapiens, UniProt O43570)
T1 construct: gene CA12; recombinant, obtained in-house
T1 sequence (O43570 25-354): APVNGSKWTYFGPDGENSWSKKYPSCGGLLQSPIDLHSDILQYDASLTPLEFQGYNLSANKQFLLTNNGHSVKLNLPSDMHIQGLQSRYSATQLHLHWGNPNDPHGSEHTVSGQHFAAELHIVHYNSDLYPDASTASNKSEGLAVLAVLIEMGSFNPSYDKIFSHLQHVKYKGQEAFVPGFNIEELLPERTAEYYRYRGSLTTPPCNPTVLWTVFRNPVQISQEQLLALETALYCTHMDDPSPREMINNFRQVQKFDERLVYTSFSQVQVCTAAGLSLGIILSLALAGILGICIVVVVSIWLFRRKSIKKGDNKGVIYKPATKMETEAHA
From the text: stopped-flow CO2 hydrase assay on hCA XII

hCA I = biological target: T2, hCA I (Homo sapiens, UniProt P00915)
T2 construct: gene CA1; recombinant, obtained in-house
T2 sequence (P00915 2-261): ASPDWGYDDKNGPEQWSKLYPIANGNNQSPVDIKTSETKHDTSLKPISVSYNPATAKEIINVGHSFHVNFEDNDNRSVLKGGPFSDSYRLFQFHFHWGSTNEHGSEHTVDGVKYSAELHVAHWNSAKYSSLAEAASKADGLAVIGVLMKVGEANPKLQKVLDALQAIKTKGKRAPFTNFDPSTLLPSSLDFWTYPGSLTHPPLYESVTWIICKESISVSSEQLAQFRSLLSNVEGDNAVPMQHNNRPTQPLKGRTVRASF
From the text: stopped-flow CO2 hydrase assay on hCA I

hCA IX = biological target: T3, hCA IX (Homo sapiens, UniProt Q16790)
T3 construct: gene CA9; recombinant, obtained in-house
From the text: stopped-flow CO2 hydrase assay on hCA IX

hCA II = biological target: T4, hCA II (Homo sapiens, UniProt P00918)
T4 construct: gene CA2; recombinant, obtained in-house
From the text: stopped-flow CO2 hydrase assay on hCA II

Work on “[{(η^5-C5H4)-CH=N–N(H)-C6H4-4-SO2NH2}]re(CO)3 [1a]” yielded a Ki (hCA XII) of 24.4 nM, a Ki (hCA I) of 7.5 nM and a Ki (hCA IX) of 580 nM. The Ki (hCA II) was 22.4 nM.

For “[{(η^5-C5H4)-C(CH3)=N–N(H)-C6H4-4-SO2NH2}]re(CO)3 [1b]”, the Ki (hCA XII) was 3.8 nM, the Ki (hCA I) was 3.7 nM and the Ki (hCA IX) was 25 nM. It also gave a Ki (hCA II) of 9.7 nM.

Substance “[{(η^5-C5H4)-CH=N–N(H)-C6H4-4-SO2NH2}]FeCp [3a]” has a Ki (hCA XII) of 4.9 nM, a Ki (hCA I) of 13.2 nM and a Ki (hCA IX) of 49.9 nM. The Ki (hCA II) was 1.7 nM.

“[{(η^5-C5H4)-C(CH3)=N-N(H)-C6H4-4-SO2NH2}]FeCp [3b]” was tested, and the Ki (hCA XII) was 1.9 nM, the Ki (hCA I) was 3.6 nM and the Ki (hCA IX) was 41.9 nM. The Ki (hCA II) was 9.3 nM.

For “[{(η^5-C5H4)-CH=N–N(H)-C6H4-4-SO2NH2}]Mn(CO)3 [2a]”, the Ki (hCA XII) was 3.1 nM, the Ki (hCA I) was 5.9 nM and the Ki (hCA IX) was 2.1 nM. For the same substance, the Ki (hCA II) was 8.2 nM.

In the case of “[{(η^5-C5H4)-C(CH3)=N–N(H)-C6H4-4-SO2NH2}]Mn(CO)3 [2b]”, the Ki (hCA XII) is reported as 3.3 nM, the Ki (hCA I) is reported as 269 nM and the Ki (hCA IX) is reported as 221 nM. It also gave a Ki (hCA II) of 11.2 nM.
